Experimental data published in ChEMBL document CHEMBL1201862, “PubChem BioAssay data set” (2004).
The source made the active and inactive calls.

How the values were obtained:
[1] = test system: Streptococcus sp. 'group A'; experiment: growth inhibition of control SK(-) GAS strain, dose response, counter-screen for streptokinase expression inhibitor project, luminescence, kanamycin, BacTiterGlo, confirmation (AID 1900); assay type: functional, organism-based
Streptococcus = experiment: Group A Streptococcus viability loss, dose response, counter-screen for streptokinase expression inhibitor project, luminescence, BacTiterGlo (AID 1915); assay type: functional, organism-based;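 further: potency for reduction of bacterial viability or growth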
Streptokinase A = target: T1, Streptokinase A (Streptococcus pyogenes serotype M1, UniProt P10520); experiment: S. pyogenes streptokinase expression inhibitors, potency, dose response, plasminogen activation absorbance, OD405 (AID 1914); assay type: functional, Streptococcus pyogenes M1 GAS;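 further: secreted streptokinase activity via plasminogen activation per viability signal from cell pellet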
T1 sequence (P10520 whole entry): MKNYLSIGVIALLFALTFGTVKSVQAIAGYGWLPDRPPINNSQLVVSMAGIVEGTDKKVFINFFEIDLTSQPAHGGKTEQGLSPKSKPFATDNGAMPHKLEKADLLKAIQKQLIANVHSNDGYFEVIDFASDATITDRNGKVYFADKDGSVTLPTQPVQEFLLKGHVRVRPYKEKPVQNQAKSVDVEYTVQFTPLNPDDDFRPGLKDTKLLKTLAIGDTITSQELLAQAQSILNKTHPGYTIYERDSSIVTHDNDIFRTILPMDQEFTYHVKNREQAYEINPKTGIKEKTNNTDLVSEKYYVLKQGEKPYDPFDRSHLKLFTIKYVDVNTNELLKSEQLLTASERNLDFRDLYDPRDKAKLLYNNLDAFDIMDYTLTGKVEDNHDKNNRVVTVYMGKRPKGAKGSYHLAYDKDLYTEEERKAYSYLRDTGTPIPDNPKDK

[2] = NIH-3T3 fibroblast cytotoxicity, dose response, cytotoxicity control, cell-based, fluorescence, Alamar Blue, secondary assay (AID 2327); assay type: functional;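 further: NIH-3T3 mouse fibroblasts cultured with fluconazole at 8 µg/mL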
[3] = C. albicans growth with fluconazole, confirmation, fluorescence, retest (AID 2467); assay type: functional, cell-based
[4] = A549 cell cytotoxicity, dose response, cytotoxicity control, plate reader, cherry-pick, antagonist series (AID 743412); assay type: functional, cell-based
[5] = HepG2 cell cytotoxicity, dose response, cytotoxicity control, plate reader, cherry-pick, antagonist series (AID 743416); assay type: functional, cell-based
[6] = LGR2 antagonists, dose response, cell-based, HEK293, CRE-luciferase reporter, cherry pick, set 2 (AID 743343); assay type: functional;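 further: transfected cells were stimulated with diluted bursicon conditioned medium after compound addition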
[7] = MC4R antagonists, dose response, counter-screen for LGR2 antagonist project, cell-based, plate reader, cherry pick (AID 743444); assay type: functional;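 further: transfected HEK 293 cells stimulated with alpha-MSH peptide; potency of inhibitors of the alpha-MSH evoked signal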
[8] = target: T2, Endoribonuclease toxin MazF (Escherichia coli K-12, UniProt P0AE70); experiment: MazF toxin RNase activators, dose response, biochemical, fluorescence, single-stranded RNA substrate, uHTS hits (AID 588481); assay type: functional
T2 sequence (P0AE70 whole entry): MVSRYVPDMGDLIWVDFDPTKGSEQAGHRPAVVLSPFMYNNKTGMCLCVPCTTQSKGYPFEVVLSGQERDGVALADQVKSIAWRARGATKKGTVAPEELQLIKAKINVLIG

[9] = target: T2, Endoribonuclease toxin MazF; experiment: fluorescent RNA oligo signal without MazF, dose response, counter-screen for MazEF activator project, biochemical, fluorescence, single-stranded RNase substrate (AID 588502); assay type: functional
[10] = target: T3, RNA-binding protein pos-1 (Caenorhabditis elegans, UniProt G5EF15); experiment: inhibitors of POS-1/mex-3 RNA binding, dose response, biochemical, fluorescence polarization (AID 1964);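 further: purified POS-1 fused to maltose binding protein made in E. coli; potency of compounds blocking POS-1 binding to fluorescent RNA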
T3 sequence (G5EF15 whole entry): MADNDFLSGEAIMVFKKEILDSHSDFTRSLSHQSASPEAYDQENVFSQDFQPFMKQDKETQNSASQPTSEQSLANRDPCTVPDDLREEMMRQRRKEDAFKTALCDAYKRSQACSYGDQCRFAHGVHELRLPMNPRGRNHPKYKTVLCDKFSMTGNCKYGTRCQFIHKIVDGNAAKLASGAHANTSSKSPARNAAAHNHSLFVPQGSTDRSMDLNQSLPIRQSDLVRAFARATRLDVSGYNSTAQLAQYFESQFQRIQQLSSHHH

[11] = target: T4, Zinc finger protein mex-5 (Caenorhabditis elegans, UniProt Q9XUB2); experiment: MEX-5/TCR-2 RNA interaction inhibitors, dose response, biochemical, C. elegans, fluorescence polarization (AID 1960)
T4 sequence (Q9XUB2 whole entry): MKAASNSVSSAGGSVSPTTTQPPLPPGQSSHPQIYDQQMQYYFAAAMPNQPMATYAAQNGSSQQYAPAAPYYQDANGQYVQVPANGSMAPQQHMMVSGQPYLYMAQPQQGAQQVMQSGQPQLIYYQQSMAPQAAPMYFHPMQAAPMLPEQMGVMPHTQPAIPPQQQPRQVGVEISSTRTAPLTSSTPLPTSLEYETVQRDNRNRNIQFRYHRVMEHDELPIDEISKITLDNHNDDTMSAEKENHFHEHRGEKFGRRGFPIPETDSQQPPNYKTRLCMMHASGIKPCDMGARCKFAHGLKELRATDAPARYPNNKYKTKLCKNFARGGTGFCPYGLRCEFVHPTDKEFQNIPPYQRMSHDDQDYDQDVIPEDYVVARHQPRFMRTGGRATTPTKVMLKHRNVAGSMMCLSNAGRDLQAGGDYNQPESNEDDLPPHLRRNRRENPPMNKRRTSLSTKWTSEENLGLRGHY

HEK293 = experiment: inhibitors of LMP1-driven NF-kB reporter, dose response, cell-based, HEK293, luciferase, cherry-pick (AID 588343); assay type: functional; details: Homo sapiens
[12] = ZM109 Env clade C HIV-1 fusion inhibitors, dose response, HeLa effector, CEM target cells, luciferase, cherry-pick (AID 652058); assay type: functional, cell-based
[13] = inhibitors of clade B AD8 Env fusion, dose response, cell-based, cherry-pick (AID 652062); assay type: functional;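 further: luciferase signal from cell-cell fusion driven by HIV-1 clade B AD8 Env; potency is for inhibitors of fusion seen as a drop in luminescence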
[14] = inhibitors of HIV Env-driven cell fusion, dose response, cherry-pick (AID 652057); assay type: functional, cell-based

Compound: Cc1ccc(O)c(C2=NNC(c3ccc(Cl)cc3)C2)c1 (centres undefined)
- EC50 [1]: 4.36 µM (active)
- EC50 (Streptococcus): 9.12 µM (active)
- EC50 (Streptokinase A): > 150 µM (not active)
- EC50 [2]: > 160 µM (inactive)
- EC50 [3]: 3.23 µM (active)

Compound: CCCNC(=O)Nc1ccc2c(c1)C(=O)N(C)C[C@H](OC)[C@H](C)CN(Cc1ccc(-c3ccccn3)cc1)[C@@H](C)CO2
- AC50 [4]: 26.4 µM (active)
- AC50 [5]: 44 µM (active)
- AC50 [6]: 50.8 µM (active)
- AC50 [7]: 55.8 µM (active)

Compound: O=C(Nc1ccccc1)c1nn(-c2ccccc2)c(=O)cc1C(F)(F)F
- EC50 [8]: > 99 µM (inactive)
- EC50 [9]: > 99 µM (inactive)
- EC50 [10]: > 300 µM (not active)
- EC50 [11]: > 300 µM (not active)

Compound: CSc1nnc(N2C(=O)C(O)=C(C(=O)c3ccc(C)o3)C2c2ccc(C)cc2)s1 (centres undefined)
- EC50 [8]: 9.87 µM (active)
- EC50 [9]: > 99 µM (inactive)

Compound: Cc1nc(SCC(=O)Nc2cc(C)on2)c2c3c(sc2n1)CCCC3
- EC50 [8]: > 99 µM (inactive)
- EC50 [9]: > 99 µM (inactive)

Compound: Cc1ccoc1C(=O)Nc1ccc2ccccc2c1
- AC50 [4]: > 52 µM (inactive)
- AC50 [5]: 40 µM (active)
- AC50 [6]: 7.48 µM (active)
- AC50 [7]: 9.34 µM (active)

Compound: O=C(c1ccc(Cl)cc1)N1CCN(CCOc2ccccc2)CC1
- AC50 (HEK293): > 350 µM (inactive)

Compound: C[C@H]1CN([C@@H](C)CO)S(=O)(=O)c2ccc(Br)cc2O[C@H]1CN(C)Cc1ccc(F)cc1
- AC50 [12]: 5.86 µM (active)
- AC50 [13]: 30.9 µM (active)
- AC50 [14]: 3.67 µM (active)

Compound: COc1ccc2c(c1)S/C(=C\C(=O)c1ccncc1)N2C
- EC50 [8]: > 99 µM (inactive)
- EC50 [9]: > 99 µM (inactive)
- EC50 [10]: > 300 µM (not active)
- EC50 [11]: > 300 µM (not active)
